Measurements as given in publication PMC7144195, “Synthesis, antitumor activity, and molecular docking study of 2-cyclopentyloxyanisole derivatives: mechanistic study of enzyme inhibition” (Journal of Enzyme Inhibition and Medicinal Chemistry, 2020).
Where two headings read alike, the source gives them in different places.

Experiments:
MCF-7 cell line = test: In vitro antitumor MTT assay, MCF-7; assay type: cell-based
Protocol: (§3) The antitumor activity was performed by using the tetrazolium salt 3-(4,5-dimethyl-2-thiazolyl)-2,5-diphenyl-2H-tetrazolium bromide (MTT) assay in accordance with an established method[39].

HePG2 cell line = test: In vitro antitumor MTT assay, HePG2; assay type: cell-based
Protocol: (§1) The antitumor activity was performed by using the tetrazolium salt 3-(4,5-dimethyl-2-thiazolyl)-2,5-diphenyl-2H-tetrazolium bromide (MTT) assay in accordance with an established method.
(§2) Compounds 3a–c, 4a,b, 5a,b, 6a,b, 7a–e, 8, 9a–c, 10, 11, 12a–c, 13, and 14 were screened for their in vitro antitumor activity by using the standard 3-(4,5-dimethylthiazol-2-yl)-2,5-diphenyltetrazolium bromide (MTT) assay against five human cancers: HePG2, HCT-116, MCF-7, PC3, and HeLa cell lines. […].

HCT-116 cell line = test: In vitro antitumor MTT assay, HCT-116; assay type: cell-based
Protocol: as §3

PC3 cell line = test: In vitro antitumor MTT assay, PC3; assay type: cell-based
Protocol: as §3

[1] = system: HePG2, HCT-116, MCF-7, PC3, and HeLa cell lines; test: In vitro antitumor MTT assay, panel of five human cancer cell lines (text summaries); assay type: cell-based; conditions: for IC50: read-out: IC50, antitumor activity, range over the tested cancer cell lines
Protocol: as §1, §2

HeLa cell line = test: In vitro antitumor MTT assay, HeLa; assay type: cell-based
Protocol: as §1, §2

[2] = Homo sapiens, MCF7; read-out: IC50 (µM) MCF-7
[3] = Homo sapiens, HepG2; read-out: IC50 (µM) HePG2
[4] = Homo sapiens, HCT-116; read-out: IC50 (µM) HCT-116
[5] = Homo sapiens, PC-3; read-out: IC50 (µM) PC3
[6] = Homo sapiens, range over (all or some of) HePG2, HCT-116, MCF-7, PC3, HeLa
[7] = Homo sapiens; read-out: IC50 (µM) HeLa
[8] = Homo sapiens, MCF7, read-out: IC50 (µM) MCF-7
[9] = Homo sapiens, HepG2, read-out: IC50 (µM) HePG2
[10] = Homo sapiens, HCT-116, read-out: IC50 (µM) HCT-116
[11] = Homo sapiens, PC-3, read-out: IC50 (µM) PC3
[12] = Homo sapiens, read-out: IC50 (µM) HeLa

Row | Structure (SMILES) | IC50 (MCF-7 cell line; [2]) [µM] | IC50 (HePG2 cell line; [3]) [µM] | IC50 (HCT-116 cell line; [4]) [µM] | IC50 (PC3 cell line; [5]) [µM] | IC50 [1, 6] [µM] | IC50 (HeLa cell line; [7]) [µM] | melting point [°C] | IC50 (MCF-7 cell line; [8]) [µM] | IC50 (HePG2 cell line; [9]) [µM] | IC50 (HCT-116 cell line; [10]) [µM] | IC50 (PC3 cell line; [11]) [µM] | IC50 ([1]; Homo sapiens) [µM] | IC50 (HeLa cell line; [12]) [µM] | antitumor activity against the tested cancer cell lines (in words) ([1]; all tested cancer cell lines) | IC50 ([1]; range over (all or some of) HePG2, HCT-116, MCF-7, PC3, HeLa) [µM]
1 | CN(C)C/C=C/C(=O)Nc1cc2c(Nc3ccc(F)c(Cl)c3)ncnc2cc1O[C@H]1CCOC1 [Afatinib, afatinib, reference compound] | 7.1 ± 0.49 | 5.4 ± 0.25 | 11.4 ± 1.26 | 7.7 ± 0.57 | 5.4 to 11.4 | 6.2 ± 0.67 |  |  |  |  |  |  |  |  | 
2 | COc1ccc(C=C2CCCC2=O)cc1OC1CCCC1 [Compound 3a, 2-(3-(Cyclopentyloxy)-4-methoxybenzylidene)cyclopentanone] | 56.1 ± 2.6 | 96 ± 5.2 | > 100 | 51.4 ± 3 |  | 59.1 ± 3.8 |  |  |  |  |  |  |  |  | 
3 | COc1ccc(C=C2CCCCC2=O)cc1OC1CCCC1 [Compound 3b, 2-(3-(Cyclopentyloxy)-4-methoxybenzylidene)cyclohexanone] | 23.8 ± 1.5 | 53.9 ± 3.7 | 80.6 ± 3.9 | 19.3 ± 1.8 |  | 26.1 ± 1.9 | 245 to 247 |  |  |  |  |  |  |  | 
4 | COc1ccc(C=C2CCCCCC2=O)cc1OC1CCCC1 [Compound 3c, 2-(3-(Cyclopentyloxy)-4-methoxybenzylidene)cycloheptanone] | > 100 | 86.9 ± 4.5 | 93.5 ± 5.1 | > 100 |  | 81.7 ± 4.7 | 250 to 252 |  |  |  |  |  |  |  | 
5 | COc1ccc(C2NC(=S)NC3=C2CCCC3)cc1OC1CCCC1 (stereo not drawn) [Compound 5a, 4-(3-(Cyclopentyloxy)-4-methoxyphenyl)-3,4,5,6,7,8-hexahydroquinazoline-2(1H)-thione] | 92.4 ± 5.2 | 73.4 ± 3.7 | 66.5 ± 3.8 | 79 ± 4.1 |  | 84.3 ± 4.6 | 199 to 201 |  |  |  |  |  |  |  | 
6 | COc1ccc(C2NC(=S)NC3=C2CCCCC3)cc1OC1CCCC1 (stereo not drawn) [Compound 5b, 4-(3-(Cyclopentyloxy)-4-methoxyphenyl)-1,3,4,5,6,7,8,9-octahydro-2H-cyclohepta[d]pyrimidine-2-thione] | 81.2 ± 4.3 | 59.1 ± 3.5 | 61.1 ± 3.6 | 55.2 ± 3.1 |  | 46.3 ± 3 |  |  |  |  |  |  |  |  | 
7 | COc1ccc(C2NC(=O)NC3=C2C(=O)CC(C)(C)C3)cc1OC1CCCC1 (stereo not drawn) [Compound 6a, 4-(3-(Cyclopentyloxy)-4-methoxyphenyl)-7,7-dimethyl-4,6,7,8-tetrahydroquinazoline-2,5(1H,3H)-dione] | 28.6 ± 1.6 | 18.5 ± 1.7 | 30.5 ± 1.8 | 27.4 ± 2.1 | 18.5 to 30.5 | 19.1 ± 1.7 | 230 to 232 |  |  |  |  |  |  |  | 
8 | COc1ccc(C2NC(=S)NC3=C2C(=O)CC(C)(C)C3)cc1OC1CCCC1 (stereo not drawn) [Compound 6b, 4-(3-(Cyclopentyloxy)-4-methoxyphenyl)-7,7-dimethyl-2-thioxo-2,3,4,6,7,8-hexahydroquinazolin-5(1H)-one] | 10.3 ± 1.1 | 16.1 ± 1.4 | 25.4 ± 1.7 | 17.9 ± 1.6 | 10.3 to 25.4 | 13.5 ± 1.4 | 233 to 235 |  |  |  |  |  |  |  | 
9 | COc1ccc(-c2nc3c4ccccc4c4ccccc4c3[nH]2)cc1OC1CCCC1 [Compound 7a, 2-(3-(Cyclopentyloxy)-4-methoxyphenyl)-1H-phenanthro[9,10-d]imidazole] |  |  |  |  |  |  | 290 to 292 | 89.8 ± 4.3 | 78.2 ± 4.4 | 90.3 ± 4.9 | > 100 | 53.2 to 90.3 | 77.6 ± 4.6 |  | 
10 | COc1ccc(-c2nc3c4ccccc4c4ccccc4c3n2-c2ccc(C)cc2)cc1OC1CCCC1 [Compound 7c, 2-(3-(Cyclopentyloxy)-4-methoxyphenyl)-1-(4-methylphenyl)-1H-phenanthro[9,10-d]imidazole] |  |  |  |  |  |  | 291 to 294 | 65.3 ± 3.4 | 57.1 ± 3.9 | 81.2 ± 4.2 | 68.1 ± 3.5 | 53.2 to 90.3 | 53.2 ± 3.7 |  | 
11 | COc1ccc(-c2nc3c4ccccc4c4ccccc4c3n2-c2ccc(F)cc2)cc1OC1CCCC1 [Compound 7d, 2-(3-(Cyclopentyloxy)-4-methoxyphenyl)-1-(4-fluorophenyl)-1H-phenanthro[9,10-d]imidazole] |  |  |  |  |  |  | 290 to 292 | > 100 | > 100 | > 100 | > 100 |  | > 100 | no antitumor activity | 
12 | COc1ccc(-c2nc3c4ccccc4c4ccccc4c3n2-c2ccc(Cl)cc2)cc1OC1CCCC1 [Compound 7e, 2-(3-(Cyclopentyloxy)-4-methoxyphenyl)-1-(4-chlorophenyl)-1H-phenanthro[9,10-d]imidazole] |  |  |  |  |  |  | 294 to 296 | 42.4 ± 2.2 | 29.9 ± 2.1 | 44.8 ± 2.3 | 47 ± 2.7 | 29.8 to 47 | 38.1 ± 2.5 |  | 
13 | COc1ccc(C2C3=C(CC(C)(C)CC3=O)NC3=C2C(=O)CC(C)(C)C3)cc1OC1CCCC1 [Compound 8, 9-(3-(Cyclopentyloxy)-4-methoxyphenyl)-3,3,6,6-tetramethyl-3,4,6,7,9,10-hexahydroacridine-1,8(2H,5H)-dione] | 60.5 ± 2.8 | 41.8 ± 3 | 70.5 ± 3.5 | 55.8 ± 3.2 | 29.8 to 47 | 43.5 ± 2.9 | 286 to 287 |  |  |  |  |  |  |  | 41.8 to 70.5
14 | COc1ccc(C(=S)N2CCOCC2)cc1OC1CCCC1 [Compound 9a, (3-(Cyclopentyloxy)-4-methoxyphenyl)(morpholino)methanethione] | 35.2 ± 1.9 | 32.9 ± 2.3 | 48.1 ± 2.4 | 29.2 ± 2.3 | 29.2 to 48.1 | 37.5 ± 2.5 | 190 to 192 |  |  |  |  |  |  |  | 
15 | COc1ccc(C(=S)N2CCCCC2)cc1OC1CCCC1 [Compound 9b, (3-(Cyclopentyloxy)-4-methoxyphenyl)(piperidin-1-yl)methanethione] | 37.1 ± 2 | 24.9 ± 1.9 | 39.1 ± 2.2 | 31.5 ± 2.4 | 24.9 to 39.1 | 28.4 ± 2.3 | 193 to 195 |  |  |  |  |  |  |  | 
16 | COc1ccc(-c2cc(-c3ccccc3)[nH]c(=O)c2C#N)cc1OC1CCCC1 [Compound 12a, 4-(3-(Cyclopentyloxy)-4-methoxyphenyl)-2-oxo-6-phenyl-1,2-dihydropyridine-3-carbonitrile] | 71.6 ± 3.9 | 45.2 ± 3.4 | 76 ± 3.6 | 79.8 ± 4 |  | 65.7 ± 4.1 | > 300 |  |  |  |  |  |  |  | 
17 | COc1ccc(-c2cc(-c3ccc(C)cc3)[nH]c(=O)c2C#N)cc1OC1CCCC1 [Compound 12b, 4-(3-(cyclopentyloxy)-4-methoxyphenyl)-2-oxo-6-(p-tolyl)-1,2-dihydropyridine-3-carbonitrile] | 58.3 ± 2.7 | 38.1 ± 2.8 | 67.7 ± 3.5 | 61.5 ± 3.3 |  | 45.7 ± 3.2 | > 300 |  |  |  |  |  |  |  | 
18 | COc1ccc(-c2cc(-c3ccc(Cl)c(Cl)c3)[nH]c(=O)c2C#N)cc1OC1CCCC1 [Compound 12c, 4-(3-(Cyclopentyloxy)-4-methoxyphenyl)-6-(3,4-dichlorophenyl)-2-oxo-1,2-dihydropyridine-3-carbonitrile] | 66.1 ± 3.7 | 59.6 ± 4 | 83.4 ± 4.3 | 73.5 ± 3.8 |  | 62.8 ± 3.9 | > 300 |  |  |  |  |  |  |  | 
19 | COc1cccc2c1C(=O)c1c(O)c3c(c(O)c1C2=O)C[C@@](O)(C(=O)CO)C[C@@H]3O[C@H]1C[C@H](N)[C@H](O)[C@H](C)O1 [DOX, doxorubicin, reference compound] |  |  |  |  | 4.17 to 8.87 |  |  |  |  |  |  |  |  |  | 
